Reference: DBAASP
Values after ≈ are worked out from the molar mass of the structure shown.

Assays:
Experiment in all cases: ≥ marks a high value that may be exact or a test limit, other limits are often not marked, values filed in µg/mL are converted to µM
[1] = test system: Staphylococcus aureus ATCC 29213
Aerococcus viridans = test system: Aerococcus viridans
[2] = test system: Escherichia coli ATCC 25922
Pseudomonas aeruginosa = test system: Pseudomonas aeruginosa
Klebsiella pneumoniae = test system: Klebsiella pneumoniae
Rothia nasimurium = test system: Rothia nasimurium
Staphylococcus sciuri = test system: Staphylococcus sciuri
Escherichia coli O111 = test system: Escherichia coli O111
[3] = test system: Escherichia coli MTCC 0723
[4] = test system: Acinetobacter johnsonii NCDC 0072
[5] = test system: Staphylococcus aureus NCDC 0111
[6] = test system: Pseudomonas aeruginosa NCDC 0105
[7] = test system: Listeria monocytogenes ATCC 19111
[8] = test system: Salmonella enterica subsp. enterica serovar Typhimurium ATCC 14028
[9] = test system: Pseudomonas aeruginosa ATCC 27853
[10] = test system: Bacillus cereus NCDC 0240
[11] = test system: Enterococcus faecalis V583
[12] = test system: Paenibacillus polymyxa CGMCC 4314
[13] = test system: Serratia marcescens CICC 10187
[14] = test system: Salmonella enterica subsp. enterica serovar Paratyphi B CICC 21495
Bacillus cereus AS1.1846 = test system: Bacillus cereus AS1.1846
[15] = test system: Clostridioides difficile CICC 22951
[16] = test system: Pseudomonas fluorescens AS1.1802
[17] = test system: Proteus mirabilis CMCC 49005
[18] = test system: Salmonella enterica subsp. enterica serovar Paratyphi A CICC 21501
[19] = test system: Alicyclobacillus acidoterrestris CICC 10374
[20] = test system: Staphylococcus aureus CMCC 26003
[21] = test system: Salmonella typhimurium CMCC 51005
[22] = test system: Shigella flexneri CMCC 51571
[23] = test system: Bacillus megaterium CICC 10448
[24] = test system: Clostridium sporogenes CICC 10385
[25] = test system: Geobacillus stearothermophilus CICC 20139
[26] = test system: Bacillus pumilus CMCC 63202
[27] = test system: Salmonella enterica subsp. enterica serovar Enteritidis CICC 21527
[28] = test system: Micrococcus luteus CMCC 28000
[29] = test system: Clostridium perfringens CICC 22949
[30] = test system: Bacillus subtilis ATCC 9943
Fusarium oxysporum = test system: Fusarium oxysporum
Fusarium culmorum = test system: Fusarium culmorum
Micrococcus luteus = test system: Micrococcus luteus
Ascochyta pisi = test system: Ascochyta pisi
Escherichia coli D31 = test system: Escherichia coli D31
Escherichia coli D22 = test system: Escherichia coli D22
Salmonella typhimurium = test system: Salmonella typhimurium
Neurospora crassa = test system: Neurospora crassa
Alternaria brassicicola = test system: Alternaria brassicicola
Botrytis cinerea = test system: Botrytis cinerea
Bacillus megaterium = test system: Bacillus megaterium
Fusarium haematococcum = test system: Fusarium haematococcum
Trichoderma viride = test system: Trichoderma viride
Bacillus subtilis = test system: Bacillus subtilis
[31] = test system: Pectobacterium carotovorum
Enterobacter cloacae = test system: Enterobacter cloacae
Pediococcus acidilactici = test system: Pediococcus acidilactici
Escherichia coli 1106 = test system: Escherichia coli 1106

N[C@@H](CC(=O)O)C(=O)N[C@@H](CCC(=O)O)C(=O)N[C@@H](CC(=O)O)C(=O)N[C@@H](CC(=O)O)C(=O)N[C@@H](CC(=O)O)C(=O)O [DEDDD]
MIC [1]: 16.5 µM (≈ 10 µg/mL) | MIC (Aerococcus viridans): ≥ 32.9 µM | MIC [2]: 82.3 µM (≈ 50 µg/mL) | MIC (Pseudomonas aeruginosa): 82.3 µM (≈ 50 µg/mL) | MIC (Klebsiella pneumoniae): 82.3 µM (≈ 50 µg/mL) | MIC (Rothia nasimurium): 16.5 µM (≈ 10 µg/mL) | MIC (Staphylococcus sciuri): ≥ 82.3 µM | MIC (Escherichia coli O111): ≥ 82.3 µM

CC[C@H](C)[C@H](NC(=O)[C@H](CO)NC(=O)[C@H](Cc1c[nH]c2ccccc12)NC(=O)[C@@H]1CCCN1C(=O)[C@@H](NC(=O)[C@H](C)N)[C@@H](C)CC)C(=O)N[C@@H](Cc1c[nH]c2ccccc12)C(=O)N[C@@H](Cc1c[nH]c2ccccc12)C(=O)N[C@@H](Cc1cnc[nH]1)C(=O)N[C@@H](CC(C)C)C(=O)N[C@@H](CC(C)C)C(=O)N[C@@H](Cc1ccccc1)C(=O)N[C@@H](CCCCN)C(=O)NCC(=O)O [AIPWSIWWHLLFKG]
MIC [1]: 0.8 µM (≈ 1.4 µg/mL) | MIC [3]: ≥ 50 µM | MIC [4]: 25 µM (≈ 43.9 µg/mL) | MIC [5]: 12.5 µM (≈ 21.9 µg/mL) | MIC [6]: ≥ 200 µM | MIC [7]: 1.5 µM (≈ 2.63 µg/mL) | MIC [8]: 3 µM (≈ 5.26 µg/mL) | MIC [9]: 200 µM (≈ 351 µg/mL) | MIC [10]: ≥ 50 µM

CC[C@H](C)[C@H](N)C(=O)N[C@H](C(=O)N[C@@H](CO)C(=O)N[C@@H](CO)C(=O)N[C@@H](CCSC)C(=O)N[C@@H](Cc1ccccc1)C(=O)N[C@H](C(=O)N[C@@H](CO)C(=O)N[C@@H](C)C(=O)O)C(C)C)C(C)C [IVSSMFVSA]
MIC [11]: ≥ 133 µM

CSCC[C@H](NC(=O)[C@H](CCCCN)NC(=O)[C@H](CCC(N)=O)NC(=O)[C@H](Cc1c[nH]c2ccccc12)NC(=O)[C@@H](N)Cc1ccccc1)C(=O)N[C@@H](CO)C(=O)N[C@@H](Cc1ccccc1)C(=O)N[C@@H](C)C(=O)O [FWQKMSFA]
MIC [12]: 15.3 µM (≈ 16 µg/mL) | MIC [13]: 15.3 µM (≈ 16 µg/mL) | MIC [14]: 15.3 µM (≈ 16 µg/mL) | MIC (Bacillus cereus AS1.1846): 15.3 µM (≈ 16 µg/mL) | MIC [2]: 61.3 µM (≈ 64 µg/mL) | MIC [15]: 30.6 µM (≈ 32 µg/mL) | MIC [16]: 15.3 µM (≈ 16 µg/mL) | MIC [17]: 15.3 µM (≈ 16 µg/mL) | MIC [18]: 15.3 µM (≈ 16 µg/mL) | MIC [19]: 15.3 µM (≈ 16 µg/mL) | MIC [20]: 15.3 µM (≈ 16 µg/mL) | MIC [21]: 30.6 µM (≈ 32 µg/mL) | MIC [22]: 30.6 µM (≈ 32 µg/mL) | MIC [23]: 15.3 µM (≈ 16 µg/mL) | MIC [24]: 30.6 µM (≈ 32 µg/mL) | MIC [25]: 30.6 µM (≈ 32 µg/mL) | MIC [26]: 15.3 µM (≈ 16 µg/mL) | MIC [27]: 15.3 µM (≈ 16 µg/mL) | MIC [28]: 15.3 µM (≈ 16 µg/mL) | MIC [29]: 30.6 µM (≈ 32 µg/mL) | MIC [30]: 15.3 µM (≈ 16 µg/mL)

CC[C@H](C)[C@H](NC(=O)[C@@H](NC(=O)[C@@H]1CCCN1C(=O)[C@@H](NC(=O)[C@@H]1CCCN1C(=O)[C@@H](N)CCCCN)C(C)C)[C@@H](C)CC)C(=O)N[C@@H](Cc1ccc(O)cc1)C(=O)N[C@H]1CSSC[C@@H](C(=O)N[C@@H](CCC(N)=O)C(=O)N[C@@H](CCCN=C(N)N)C(=O)N[C@@H](CCSC)C(=O)O)NC(=O)[C@H](CCCCN)NC(=O)CNC(=O)[C@H]([C@@H](C)O)NC(=O)[C@H](CCCN=C(N)N)NC(=O)[C@H](CCCN=C(N)N)NC(=O)[C@H](CC(N)=O)NC1=O [KPVPIIYCNRRTGKCQRM]
MIC (Fusarium oxysporum): 28.3 µM (≈ 61.1 µg/mL) | MIC (Fusarium culmorum): 7.07 µM (≈ 15.3 µg/mL) | MIC (Micrococcus luteus): 1.73 µM (≈ 3.74 µg/mL) | MIC (Ascochyta pisi): 14.1 µM (≈ 30.6 µg/mL) | MIC (Aerococcus viridans): 0.849 µM (≈ 1.83 µg/mL) | MIC (Escherichia coli D31): 0.424 µM (≈ 0.917 µg/mL) | MIC (Escherichia coli D22): 0.424 µM (≈ 0.917 µg/mL) | MIC (Salmonella typhimurium): 1.73 µM (≈ 3.74 µg/mL) | MIC (Neurospora crassa): 3.54 µM (≈ 7.64 µg/mL) | MIC (Pseudomonas aeruginosa): 28.3 µM (≈ 61.1 µg/mL) | MIC (Klebsiella pneumoniae): 1.73 µM (≈ 3.74 µg/mL) | MIC (Alternaria brassicicola): 3.54 µM (≈ 7.64 µg/mL) | MIC (Botrytis cinerea): 1.73 µM (≈ 3.74 µg/mL) | MIC (Bacillus megaterium): 3.54 µM (≈ 7.64 µg/mL) | MIC (Fusarium haematococcum): 7.07 µM (≈ 15.3 µg/mL) | MIC (Trichoderma viride): 3.54 µM (≈ 7.64 µg/mL) | MIC (Bacillus subtilis): 28.3 µM (≈ 61.1 µg/mL) | MIC [31]: 28.3 µM (≈ 61.1 µg/mL) | MIC (Enterobacter cloacae): 1.73 µM (≈ 3.74 µg/mL) | MIC (Pediococcus acidilactici): 28.3 µM (≈ 61.1 µg/mL) | MIC (Escherichia coli 1106): 0.849 µM (≈ 1.83 µg/mL)
